Measured values published in US20260191900A1, “Biofilm Treatment” (Phytoceutical Limited, priority 2022, published 2026).
≈ marks a conversion by molar mass, not a printed value.

How the values were obtained:
[1] = system: S. aureus (NCTC12493; MRSA); test: MIC, broth microdilution; format: cell-based, Staphylococcus aureus; conditions: for MIC: Staphylococcus aureus
Description: (§1) Staphylococcus aureus (NCTC12493; MRSA) and Pseudomonas aeruginosa (NCTC12903) were stored in Pro-Lab Diagnostics Microbank (Fisher, Basingstoke UK) tubes at −80° C. before streaking onto Nutrient Agar (Oxoid, Basingstoke, UK) and incubated at 37° C., aerobically for 18 hours.
(§2) Minimum inhibitory concentrations (MICs) were determined using the broth microdilution method (EUCAST, Clinical Microbiology and Infection (2003), 9(8)). The inoculated liquid culture (grown dynamically overnight at 37° C. in MHB) was adjusted to obtain a ~0.1 OD at 600 nm, equivalent to a 0.5 McFarland Standard. A range of concentrations (diluted in MHB) for each of the compounds were prepared in 96-well plates, followed by the addition of the inoculated media. The plates were then incubated statically for 18 hours at 37° C. Following the incubation period, the lowest concentration of compound presenting an inhibition of bacterial growth was labelled the MIC.

[2] = system: P. aeruginosa (NCTC12903); test: MIC, broth microdilution; format: cell-based, Pseudomonas aeruginosa; conditions: for MIC: Pseudomonas aeruginosa, NCTC12903
Description: as §1, §2

[3] = system: S. aureus (NCTC12493) biofilm; test: Crystal violet biofilm clearance assay; format: cell-based, Staphylococcus aureus; conditions: for amount of biofilm present after treatment (CV stain, OD 600 nm): FIG. 2, 0.000625% PHMB, 10% TPGS, 10% EM, 6.25% EtOH, dosed at day 0 to 7, 24 hours, vs untreated control; for percentage biofilm remaining / amount of biofilm remaining: FIG. 3, 0.1% PHMB, 10% TPGS or both; for percentage biofilm remaining: treated at day 0; for amount of biofilm remaining: treatment at day 1, 2 or 3
Description: as §1
(§3) The two strains of bacteria were produced using different media, with no flocculation occurring. S. aureus was produced using Dulbecco's Modified Eagle Medium and took five to seven days to grow a mature biofilm. P. aeruginosa was produced using M9 minimal media and 1% glucose media and took three days to grow a mature biofilm. Alternatively, Luria-Bertani (LB) broth could be used to grow P. aeruginosa.
(§4) The biofilm growth method and visualisation/analysis techniques were followed from J. Merritt et al. (Curr Protoc Microbiol. (2005); Chapter 1:Unit 1B.1), with modifications. S. aureus (NCTC12493) was grown in DMEM and P. aeruginosa (NCTC12903) was grown in M9 minimal media+1% glucose. Inoculated liquid culture was diluted in 1:100 in their respective medias. Into 96-well plates, 100 μL of the inoculant was added to each well. Following this, the plate was covered with a lid and incubated at 37° C. for 24-hour intervals of up to 7 days, aerobically. The compounds were added and incubated at 37° C. for a further 24 hours. Planktonic bacteria were removed using a pipette, and the biofilms were washed with Milli-Q water. To each well, 125 μL of 0.1% crystal violet (CV) solution was added and left at room temperature for 10-15 minutes. After this, the 0.1% CV solution was removed, and the well was washed until the waste ran clear. The stain was left to air-dry, before 200 μL 30% acetic acid was added to each well for 15 minutes on a plate shaker. To a new 96-well plate, 125 μL stained biofilm solution was transferred and the optical density was read at 600 nm. A comparison was made between the uninhibited biofilm and any biofilm reductions capabilities of the added compounds.
(§5) The candidate compounds were each, therefore, applied at their respective MIC values.
(§6) Bacterial growth kinetics of S. aureus grown in DMEM and P. aeruginosa grown in M9 minimal media+1% glucose were determined. The amount of biofilm remaining was determined using the CV staining method as described above.

[4] = system: P. aeruginosa (NCTC12903) biofilm; test: Crystal violet biofilm clearance assay; format: cell-based, Pseudomonas aeruginosa; conditions: for amount of biofilm present after treatment (CV stain, OD 600 nm): FIG. 2, 0.000625% PHMB, 10% TPGS, 10% EM, 6.25% EtOH, dosed at different days, 24 hours, vs untreated control; for percentage biofilm remaining / amount of biofilm remaining: FIG. 3, 0.1% PHMB, 10% TPGS or both; for percentage biofilm remaining: treated at day 0; for amount of biofilm remaining: treatment at day 1, 2 or 3
Description: as §1, §3, §4, §5, §6

[5] = Ex-vivo skin penetration, Franz diffusion cells, SRS imaging; format: in vitro ADME, pig
Description: Skin penetration studies were performed on dermatomed porcine skin, dosed using vertical Franz diffusion cells.
A scalpel was used to cut each Franz cell disc into a smaller portion for sectioning, and was sanitised with ethanol between samples. A fresh cryostat blade was used for each sample. The cryostat temperature was set to −33° C., and samples equilibrated in the cryostat for approximately 45 minutes prior to sectioning.
After 24 hours, the skin surface was cleaned and cross-sections 30 μm thick were prepared using cryosectioning and mounted onto glass coverslips. SRS (stimulated raman spectroscopy) imaging was used to observe the penetration of the composition through the skin.
SRS imaging used a Leica SP8 microscope with SRS and CARS. A PicoEmerald-S laser system output two pulsed 2 ps laser beams (a 1031 nm Stokes beam spatially and temporally overlapped with a tuneable pump beam). The Stokes beam was modulated at 20 MHz and stimulated Raman loss signals were detected in transmission using a lock-in amplifier (UHFLI, Zurich instruments). CARS and SHG/fluorescence signals were epi-detected in separate PMT channels. A water immersion×25 magnification lens (0.95 NA, Leica) was used. A short working distance air condenser (0.9 NA, Leica) was used. Laser power was 30%, which corresponded to approximately 10 mW for the pump beam and 30 mW for the Stokes beam at the sample. […]

Fibroblasts [6] = test: SRS-SHG microscopy of fibroblasts exposed to retinol; format: cell-based; conditions: 0.31 μg/mL or 0.25 μg/mL; days 1, 3 and 7
Description: Fibroblasts were exposed to compositions containing 0.31 μg/mL or 0.25 μg/mL, and a control sample with no retinol, over a period of 7 days. SRS-SHG microscopy was used to determine absorption of the retinol by the fibroblasts at days 1, 3 and 7 after exposure.

Fibroblasts [7] = test: Toxicity of retinol to fibroblasts; format: cell-based
S. aureus (NCTC12493) = test: CFU count after treatment of biofilm; format: cell-based, Staphylococcus aureus; conditions: FIG. 3; 10% TPGS or 0.1% PHMB with 10% TPGS; treated on any day
Description: (§7) The amount of biofilm remaining was determined using the CV staining method as described above. CFU count was determined by the following method: The inoculated liquid culture (grown dynamically overnight at 37° C. in liquid growth media) was spun down in a centrifuged (at max (13.3) speed for 5 minutes) (reference). The supernatant was removed and resuspend in PBS (1:100 dilution). Into each well, 20 μL of inoculated culture LB broth was added to 180 μL LB broth. […] For the untreated wells, 1 μL of PBS was added. The 96-well plate was placed in a TECAN measuring at OD600 over 24 hours at 15-minute intervals. Resulting growth kinetic experiments were conducted using mid-logarithmically growing cultures. […] Following this, the wells were homogenised, and 20 μL samples were plate spotted onto nutrient agar (NA). These plates were incubated for 18 hours at 37° C. before colonies were counted.

[8] = system: P. aeruginosa (NCTC12903); test: CFU count after treatment of biofilm; format: cell-based, Pseudomonas aeruginosa; conditions: FIG. 3; 10% TPGS or 0.1% PHMB with 10% TPGS; treated on any day
Description: as §7

[9] = concentration before inoculation, 18 hours at 37° C., vehicle ethanol, water or none
[10] = concentration before inoculation, 18 hours at 37° C., vehicle ethanol or water
[11] = vehicle TPGS (curcumin solubilised in TPGS)

CCO [Ethanol]
MIC, S. aureus [1, 9]: 6.25 w/v % | MIC, P. aeruginosa [2, 9]: 6.25 w/v % | amount of biofilm present after treatment (CV stain, OD 600 nm) [3]: at TO there was an increase in biofilm | amount of biofilm present after treatment (CV stain, OD 600 nm) [4]: little to no effect

polyhexamethylene biguanide [PHMB]
concentration inhibiting S. aureus growth (MIC) [1]: 0.000625 % v/v | MIC, S. aureus [1, 9]: 0.000625 w/v % | concentration inhibiting P. aeruginosa growth (MIC) [2]: 0.005 % v/v | MIC, P. aeruginosa [2, 9]: 0.005 w/v % | amount of biofilm present after treatment (CV stain, OD 600 nm) [3]: good biofilm clearance | percentage biofilm remaining [3]: fully reducing the biofilm remaining | amount of biofilm remaining [3]: effective | amount of biofilm present after treatment (CV stain, OD 600 nm) [4]: an increase in biofilm when dosed on T1 | percentage biofilm remaining [4]: fully reducing the biofilm remaining | amount of biofilm remaining [4]: effective

COc1cc(/C=C/C(=O)CC(=O)/C=C/c2ccc(O)c(OC)c2)ccc1O [Curcumin]
MIC [1, 10]: 2 mg/mL (≈ 5.43 mM) | MIC, S. aureus [1, 9]: 0.2 w/v % | MIC, S. aureus [1, 11]: 0.0125 w/v % | MIC [2, 10]: 2 mg/mL (≈ 5.43 mM) | MIC, P. aeruginosa [2, 9]: 0.2 w/v % | MIC, P. aeruginosa [2, 11]: 0.1 w/v %

CC1=C(/C=C/C(C)=C/C=C/C(C)=C/CO)C(C)(C)CCC1 [Retinol]
MIC [1, 10]: 50 mg/mL (≈ 175 mM) | MIC, S. aureus [1, 9]: 5 w/v % | MIC [2, 10]: 50 mg/mL (≈ 175 mM) | MIC, P. aeruginosa [2, 9]: 5 w/v % | depth through the skin down to which retinol was observed ([5]; composition comprising retinol and TPGS applied to pig skin for 24 hours): 60 μm | penetration of the retinol into the skin ([5]; similar experiment, composition including PHMB (1 wt %)): did not show penetration | response of fibroblasts (SHG signals outside of nuclei) (Fibroblasts [6]): concentration and time dependent response | concentration not toxic to fibroblasts (Fibroblasts [7]): ≤ 6000 ng/mL

Polysorbate 40
MIC, S. aureus [1, 9]: >25% w/v % | MIC, P. aeruginosa [2, 9]: >25% w/v %

tocopheryl polyethylene glycol succinate [TPGS]
concentration inhibiting S. aureus growth (MIC) [1]: 10 % v/v | MIC, S. aureus [1, 10]: (200) mg/mL | MIC, S. aureus [1, 9]: 20 w/v % | concentration inhibiting P. aeruginosa growth (MIC) [2]: 20 % v/v | MIC, P. aeruginosa [2, 10]: (200) mg/mL | MIC, P. aeruginosa [2, 9]: 20 w/v % | amount of biofilm present after treatment (CV stain, OD 600 nm) [3]: a reduction in the amount of biofilm present | percentage biofilm remaining [3]: fully reducing the biofilm remaining | amount of biofilm remaining [3]: effective | amount of biofilm present after treatment (CV stain, OD 600 nm) [4]: the most effective compound | percentage biofilm remaining [4]: fully reducing the biofilm remaining | amount of biofilm remaining [4]: effective | CFU count (S. aureus (NCTC12493)): remained substantially constant | CFU count [8]: remained substantially constant
